The compounds below were run against T1, Human ATX protein (Homo sapiens, UniProt Q13822) (assay: ATX biochemical FRET assay with FS-3 substrate). Details: FRET substrate FS-3 2 μM, ATX 1.0 μg/mL, 30 minutes pre-incubation, 2 hours at room temperature; read-out: IC50.
T1 construct: made in house
From the text: ATX (Autotaxin) is a 125 KDa glycoprotein with lysophospholipase D (LPLD) activity that generates the bioactive lipid lysophosphatidic acid (LPA) from lysophosphatidylcholine (LPC). The ATX biochemical assay utilizes a FRET (fluorescence resonance energy transfer) technology platform. The fluorescence signal of FRET substrate FS-3 is quenched due to intra-molecular FRET of a fluorophore to a non-fluorescing quencher (Ferguson, C. G., et al., Org Lett. 2006 May 11; 8(10): 2023-2026, which is incorporated by reference in its entirety). ATX catalyzes the hydrolysis of the substrate which separates the dabsyl quencher from the fluorescein reporter, which becomes fluorescent. The reaction is monitored by a SpectraMax M5 (Molecular Devices, Sunnyvale, Calif.) with at excitation wavelength 485 nm and emission wavelength […].
Fatty acid free-BSA (Sigma A8806): 10 mg/mL in H2O, stored at 4° C.
2×ATX assay buffer: 100 mM Tris, 280 mM NaCl, 10 mM KCl, 2 mM CaCl2, 2 mM MgCl2, pH 7.4.
Human ATX protein: expressed and purified in house. Stored at −80° C.
Substrate FS-3 (Echelon, L-2000): 100 μg in 77.74 μL H2O (1 mM stock), stored at −20° C.
384-well flat bottom plates—Corning #3575.
Compound dilution—All compounds were provided at 10 mM in 100% DMSO. In the first well, 2 μL of 10 mM compound was added to 78 μL of DMSO (1:40 dilution). In subsequent wells 3-fold dilution (total 10 dilutions) were performed.
1×ATX assay buffer was made up with a final concentration of 1 mg/mL fatty acid free-BSA using 2×ATX assay buffer, 10 mg/ml fatty acid free-BSA and ddH2O.
ATX protein was diluted with 1×ATX assay buffer to a concentration of 1.32 μg/mL (1.32×). 38 μL was added per well to the assay plate. The final concentration of ATX in the reaction as 1.0 μg/mL.
2 μL per well of compounds was transferred to provide the desired concentration. The plate was centrifuged, then incubated at room temperature for 30 minutes on the shaker.
Then, 10 μL was added per well to the assay plate. […] The plate was centrifuged. The plate was kept shaking at room temperature for 2 hours. Because FS-3 substrate is light sensitive, plates were kept covered and protected from light.
Fluorescence was measured using SpectraMax M5 (excitation at 485 nm/emission at 538 nm, top read).

Row | IC50 [nM] | Compound
1 | ≤ 250 | CC(N[C@H]1C[C@@H](C(=O)O)C1(C)C)c1ccc2ccc(O[C@H]3CC[C@@H](C)CC3)c(Cl)c2c1 (relative stereo) [Example 93, Cis-3-((1-(8-chloro-7-((cis-4-methylcyclohexyl)oxy)naphthalen-2-yl)ethyl)amino)-2,2-dimethylcyclobutanecarboxylic acid]
2 | ≤ 250 | CC1(C)[C@@H](NCc2ccc3ccc(O[C@H]4CC[C@@H](C)CC4)c(C#N)c3c2)C[C@H]1C(=O)O (relative stereo) [Example 99, Cis-3-(((8-cyano-7-((cis-4-methylcyclohexyl)oxy)naphthalen-2-yl)methyl)amino)-2,2-dimethylcyclobutanecarboxylic acid]
3 | ≤ 100 | O=C(O)C[C@H]1CCCN(Cc2ccc3ccc(O[C@H]4CC[C@@H](C(F)(F)F)CC4)c(C(F)(F)F)c3c2)C1 [Example 7, 2-((R)-1-((8-(trifluoromethyl)-7-((cis-4-(trifluoromethyl)cyclohexyl)oxy)naphthalen-2-yl)methyl)piperidin-3-yl)acetic acid]
4 | ≤ 250 | CC1(C)C(NCc2ccc3ccc(O[C@H]4CC[C@@H](C(F)(F)F)CC4)c(C(F)(F)F)c3c2)CC1C(=O)O (stereo partly drawn) [Example 8, 2,2-dimethyl-3-(((8-(trifluoromethyl)-7-((cis-4-(trifluoromethyl)cyclohexyl)oxy)-naphthalen-2-yl)methyl)amino)cyclobutanecarboxylic acid]
5 | ≤ 250 | CC(c1ccc2ccc(O[C@H]3CC[C@@H](C(F)(F)F)CC3)c(C(F)(F)F)c2c1)N1CCC[C@H](CC(=O)O)C1 (stereo partly drawn) [Example 21, ((R)-1-{1-[8-trifluoromethyl-7-(4-trifluoromethyl-cyclohexyloxy)-naphthalen-2-yl]-ethyl}-piperidin-3-yl)-acetic acid]

Same assay, conditions: IC50, FRET substrate FS-3 2 μM, ATX 1.0 μg/mL, 30 minutes pre-incubation, 2 hours at room temperature

Row | Compound | IC50 [nM]
6 | CCC(c1ccc2ccc(O[C@H]3CC[C@@H](C)CC3)c(C(F)(F)F)c2c1)N1C2CCC1CC(C(=O)O)C2 (relative stereo) [Example 18, 8-(1-(7-((cis-4-methylcyclohexyl)oxy)-8-(trifluoromethyl)naphthalen-2-yl)propyl)-8-azabicyclo[3.2.1]octane-3-carboxylic acid] | ≤ 250
7 | O=C(O)C1CC2CCC(C1)N2C(=O)c1ccc2ccc(O[C@H]3CC[C@@H](C(F)(F)F)CC3)c(C(F)(F)F)c2c1 (relative stereo) [Example 23, 8-(8-(trifluoromethyl)-7-((cis-4-(trifluoromethyl)cyclohexyl)oxy)-2-naphthoyl)-8-azabicyclo[3.2.1]octane-3-carboxylic acid] | ≤ 250
8 | C[C@H]1CC[C@@H](Oc2ccc3ccc(C(=O)N4C5CCC4CC(C(=O)O)C5)cc3c2C(F)(F)F)CC1 (relative stereo) [Example 24, 8-[7-(cis-4-methyl-cyclohexyloxy)-8-trifluoromethyl-naphthalene-2-carbonyl]-8-azabicyclo[3.2.1]octane-3-carboxylic acid] | ≤ 250
9 | CC[C@H]1CC[C@@H](Oc2ccc3ccc(CN4C5CCCC4CC(C(=O)O)C5)cc3c2Cl)CC1 (relative stereo) [Example 49, 9-((8-chloro-7-((cis-4-ethylcyclohexyl)oxy)naphthalen-2-yl)methyl)-9-azabicyclo[3.3.1]nonane-3-carboxylic acid] | ≤ 100
10 | C[C@H](c1ccc2ccc(O[C@H]3CC[C@@H](C)CC3)c(C(F)(F)F)c2c1)N1C2CCCC1CC(C(=O)O)C2 (single isomer, unassigned) [Example 5b] | ≤ 100
11 | C[C@H]1CC[C@@H](Oc2ccc3ccc(CN4C5CCCC4CC(C(=O)O)C5)cc3c2C(F)(F)F)CC1 (stereo partly drawn) [Example 2, 9-[7-(cis-4-methyl-cyclohexyloxy)-8-trifluoromethyl-naphthalen-2-ylmethyl]-9-aza-bicyclo[3.3.1]nonane-3-carboxylic acid] | ≤ 100
12 | C[C@H]1CC[C@@H](Oc2ccc3ccc(CN4C5CCC4CC(C(=O)O)C5)cc3c2C(F)(F)F)CC1 (stereo partly drawn) [Example 3, 8-[7-(cis-4-methyl-cyclohexyloxy)-8-trifluoromethyl-naphthalen-2-ylmethyl]-8-aza-bicyclo[3.2.1]octane-3-carboxylic acid] | ≤ 100
13 | CC(c1ccc2ccc(O[C@H]3CC[C@@H](C)CC3)c(C(F)(F)F)c2c1)N1C2CCCC1CC(C(=O)O)C2 (stereo partly drawn) [Example 5, 9-{1-[7-(cis-4-methyl-cyclohexyloxy)-8-trifluoromethyl-naphthalen-2-yl]-ethyl}-9-aza-bicyclo[3.3.1]nonane-3-carboxylic acid] | ≤ 100
14 | CC(c1ccc2ccc(O[C@H]3CC[C@@H](C(F)(F)F)CC3)c(C(F)(F)F)c2c1)N1C2CCCC1CC(C(=O)O)C2 (stereo partly drawn) [Example 10, 9-{1-[7-(cis-4-trifluoromethyl-cyclohexyloxy)-8-trifluoromethyl-naphthalen-2-yl]-ethyl}-9-aza-bicyclo[3.3.1]nonane-3-carboxylic acid] | ≤ 100
15 | CC(c1ccc2ccc(O[C@H]3CC[C@@H](C(F)(F)F)CC3)c(C(F)(F)F)c2c1)N1C2CCC1CC(C(=O)O)C2 (stereo partly drawn) [Example 12, 8-{1-[7-(cis-4-trifluoromethyl-cyclohexyloxy)-8-trifluoromethyl-naphthalen-2-yl]-ethyl}-8-aza-bicyclo[3.2.1]octane-3-carboxylic acid] | ≤ 100
16 | C[C@@H](c1ccc2ccc(O[C@H]3CC[C@@H](C(F)(F)F)CC3)c(C(F)(F)F)c2c1)N1C2CCC1CC(C(=O)O)C2 (stereo partly drawn) [Example 12a, 8-{(S)-1-[7-(cis-4-trifluoromethyl-cyclohexyloxy)-8-trifluoromethyl-naphthalen-2-yl]-ethyl}-8-aza-bicyclo[3.2.1]octane-3-carboxylic acid] | ≤ 500
17 | C[C@H](c1ccc2ccc(O[C@H]3CC[C@@H](C(F)(F)F)CC3)c(C(F)(F)F)c2c1)N1C2CCC1CC(C(=O)O)C2 (stereo partly drawn) [Example 12b, 8-{(R)-1-[7-(cis-4-trifluoromethyl-cyclohexyloxy)-8-trifluoromethyl-naphthalen-2-yl]-ethyl}-8-aza-bicyclo[3.2.1]octane-3-carboxylic acid] | ≤ 100
18 | C[C@H]1CC[C@@H](Oc2ccc3ccc(C(=O)N4C5CCCC4CC(C(=O)O)C5)cc3c2C(F)(F)F)CC1 (stereo partly drawn) [Example 13, 9-[7-(4-methyl-cyclohexyloxy)-8-trifluoromethyl-naphthalene-2-carbonyl]-9-aza-bicyclo [3.3.1]nonane-3-carboxylic acid] | ≤ 500
19 | O=C(O)C1CC2CCCC(C1)N2C(=O)c1ccc2ccc(O[C@H]3CC[C@@H](C(F)(F)F)CC3)c(C(F)(F)F)c2c1 (stereo partly drawn) [Example 14, 9-[8-trifluoromethyl-7-(4-trifluoromethyl-cyclohexyloxy)-naphthalene-2-carbonyl]-9-aza-bicyclo[3.3.1]nonane-3-carboxylic acid] | ≤ 100
20 | C[C@H]1CC[C@@H](Oc2ccc3ccc(CN4C5CCCC4CC(C(=O)O)C5)cc3c2Cl)CC1 (stereo partly drawn) [Example 15, 9-[8-Chloro-7-(4-methyl-cyclohexyloxy)-naphthalen-2-ylmethyl]-9-aza-bicyclo[3.3.1]nonane-3-carboxylic acid] | ≤ 100
21 | O=C(O)C1CC2CCC(C1)N2Cc1ccc2ccc(O[C@H]3CC[C@@H](C(F)(F)F)CC3)c(Cl)c2c1 (stereo partly drawn) [Example 26, 8-((8-chloro-7-((cis-4-(trifluoromethyl)cyclohexyl)oxy)naphthalen-2-yl)methyl)-8-azabicyclo[3.2.1]octane-3-carboxylic acid] | ≤ 250

Reference: patent US10017506B2, “ATX modulating agents” (BIOGEN MA INC., priority 2012, dated 2018)
